Tests used:
[1] = cited from earlier work
[2] = Incorporation of Tacrolimus into MPEG-hexPLA polymer micelles; type: physicochemical; details: loadings up to 300 mg Tacrolimus per gram MPEGhexPLA; aqueous micelle solution, acetone/water sonication protocol
Experimental: Objective is the evaluation of the methoxypoly(ethylene glycol)-hexyl-substituted poly(lactic acid) [MPEG-hexPLA] polymer micelles' potential to incorporate and solubilize Tacrolimus.
The incorporation studies were carried out by a standard formulation protocol. Briefly, a defined amount of Tacrolimus was dissolved in acetone and added dropwise under sonication into water, followed by evaporation of the organic solvent and equilibration of the micelle solution overnight.
As it can be seen, for loadings up to 300 mg Tacrolimus per gram MPEGhexPLA, loading efficiencies higher than 70% could be obtained by this simple procedure. FIG. 2 presents the corresponding concentrations of Tacrolimus in the aqueous solution. It has to be noted, that these solutions can be further concentrated by simple evaporation to obtain higher drug concentrations, and keeping the transparency of the solutions.

[3] = Storage stability of Tacrolimus MPEG-hexPLA micelle formulations at 4° C.; type: physicochemical; details: stored at 4° C.
From the text: The non-incorporated active compound can be removed by a simple filtration.

C=CCC1/C=C(\C)CC(C)CC(OC)C2OC(O)(C(=O)C(=O)N3CCCCC3C(=O)OC(/C(C)=C/C3CCC(O)C(OC)C3)C(C)C(O)CC1=O)C(C)CC2OC (stereo not shown) [Tacrolimus, 17-allyl-1,14-dihydroxy-12-[2-(4-hydroxy-3-methoxycyclohexyl)-1-methylvinyl]-23,25-dimethoxy-13,19,21,27-tetramethyl-11,28-dioxa-4-azatricyclo[22.3.1.0^4,9]octacos-18-ene-2,3,10,16-tetraone]
water solubility [1]: poorly water-soluble | loading efficiencies [2]: higher than 70% | stability on storage ([3]; formulation with a target of 150 mg/g): best stable formulation | stability on storage (precipitation) ([3]; higher (than 150 mg/g target) and possibly oversaturated formulations): slight drug precipitation

— patent publication US20130281638A1, “TRICYCLO COMPOUND-POLYMER CONJUGATE” (SUCAMPO AG, priority 2012, published 2013)
